In patent EP0719251B1, “BICYCLO (2.2.2) OCTANE DERIVATIVES CHOLECYSTOKININ AND/OR GASTRIN ANTAGONISTS” (JAMES BLACK FOUNDATION LIMITED, priority 1993, dated 1995):

How the values were obtained:
CCKA = target: T1, CCKA (Cavia porcellus, UniProt Q63931); assay: CCKA binding assay in guinea-pig pancreas membranes; details: [125I]-CCK8(S) 200pM, containing 0.375 µM PD134,308, read-out: CCKA pKi (converted)
T1 construct: The pancreatata were removed from male guinea-pigs (200-300g; Dunkin Hartley); from tissue; host or cells: pancreas membranes of male Dunkin Hartley guinea-pigs
T1 sequence (Q63931 1-430): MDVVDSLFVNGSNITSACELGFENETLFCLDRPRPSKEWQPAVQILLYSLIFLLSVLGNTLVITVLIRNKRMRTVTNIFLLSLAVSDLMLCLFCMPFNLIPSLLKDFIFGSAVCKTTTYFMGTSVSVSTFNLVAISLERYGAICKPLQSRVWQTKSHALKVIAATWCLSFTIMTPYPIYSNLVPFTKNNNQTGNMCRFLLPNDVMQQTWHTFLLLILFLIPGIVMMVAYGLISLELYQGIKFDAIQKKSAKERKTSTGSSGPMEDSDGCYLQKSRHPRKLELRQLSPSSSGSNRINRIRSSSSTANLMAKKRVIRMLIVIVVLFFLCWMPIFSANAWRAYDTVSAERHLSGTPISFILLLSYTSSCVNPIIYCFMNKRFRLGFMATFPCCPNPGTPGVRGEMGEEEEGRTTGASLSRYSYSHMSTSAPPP
Protocol: The compounds of the examples were also tested in a CCKÅ binding assay as follows:
The pancreatata were removed from male guinea-pigs (200-300g; Dunkin Hartley) and placed in ice-cold HEPES buffer (pH 7.2 @ 21 ± 3° ). The pancreatata were homogenised in 40 ml ice-cold HEPES buffer using a polytron (Brinkmann, PT10, setting 10) 4 x 1 second.
The homogenate was centrifuged at 39,800g for 15 min at 4°. The supernatant was discarded and the pellet re-suspended using a Teflon-in-glass homogeniser in 20 volumes of fresh buffer and recentrifuged as above. The final pellet was re-suspended using a Teflon-in-glass homogeniser to a tissue concentration of 1 mg.ml^-1 (original wet weight), and filtered through 500 µm pore-size Nytex mesh.
The membranes (400µl; containing 0.375 µM PD134,308) are incubated for 150 minutes at 21 ± 3° in a final volume of 0.5ml with HEPES buffer containing [^125I]-CCK8(S) (50µl; 200pM) and competing compound. Total and non-specific binding of [^125I]-CCK8 (S) are defined using 50µl of buffer and 50µl of 100nM L-364,718 respectively. The assay is terminated by rapid filtration through pre-soaked Whatman GF/B filters using a Brandell Cell Harvester. The filters were washed (3 x 3ml) with ice-cold 50mM Tris HCl (pH 7.4 at 4° ) and bound radioactivity is determined by counting (1 min) in a gamma counter.

gastrin = target: T2, gastrin (Rattus norvegicus, UniProt P30553); assay: gastrin antagonist activity in an immature rat stomach assay; details: isolated immature rat stomach, cumulative pentagastrin dose-response curves, acid secretion; read-out: Gastrin pKB (converted)
T2 construct: The stomach was excised and flushed with ca. 1 ml of unbuffered physiological saline solution; from tissue; host or cells: isolated whole stomach of immature rats (33-50 g, ca. 21 days old)
T2 sequence (P30553 1-452): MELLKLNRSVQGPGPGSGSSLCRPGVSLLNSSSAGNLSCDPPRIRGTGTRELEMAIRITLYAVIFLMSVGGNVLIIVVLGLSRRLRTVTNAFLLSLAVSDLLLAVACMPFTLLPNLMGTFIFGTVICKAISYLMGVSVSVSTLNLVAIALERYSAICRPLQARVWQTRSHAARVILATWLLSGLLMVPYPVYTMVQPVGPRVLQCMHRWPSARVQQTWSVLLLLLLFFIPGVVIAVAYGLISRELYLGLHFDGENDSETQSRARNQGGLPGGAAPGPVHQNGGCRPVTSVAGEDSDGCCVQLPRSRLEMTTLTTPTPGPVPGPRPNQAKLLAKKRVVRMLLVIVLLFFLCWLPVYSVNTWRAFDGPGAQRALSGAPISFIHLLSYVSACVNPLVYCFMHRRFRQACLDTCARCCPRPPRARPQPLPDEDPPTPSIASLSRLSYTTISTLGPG
Protocol: The compounds of the examples were also tested for gastrin antagonist activity in an immature rat stomach assay. The procedure was as follows: The oesophagus of immature rats (33-50 g, ca. 21 days old) was ligated at the level of the cardiac sphincter and the duodenal sphincter was cannulated. The stomach was excised and flushed with ca. 1 ml of unbuffered physiological saline solution. The fundus was punctured and cannulated. A further 4-5 ml of unbuffered solution was flushed through the stomach to ensure the preparation was not leaking. […] The stomach was continuously perfused at a rate of 1 ml min^-1 with unbuffered solution gassed with 100% O2 with the perfusate passing over an internally referenced pH-electrode fixed 12 cm above the stomach. After 120 min of stabilisation the drugs were added directly to the serosal solution in the organ bath and after a further 60 min cumulative pentagastrin dose-response curves were started.

CCKB receptor = target: T3, CCKB receptor (Mus musculus, UniProt P56481); assay: radioligand binding assay at the CCKB receptor in mouse cortical membranes; details: [125I]-CCK8S 200pM, 150 min at 21 ± 3°C, read-out: CCKB pKi (converted)
T3 construct: The whole brains from male mice (CD1 22-25g; Charles River) were removed; from tissue; host or cells: cerebral cortex membranes of male CD1 mice
T3 sequence (P56481 1-453): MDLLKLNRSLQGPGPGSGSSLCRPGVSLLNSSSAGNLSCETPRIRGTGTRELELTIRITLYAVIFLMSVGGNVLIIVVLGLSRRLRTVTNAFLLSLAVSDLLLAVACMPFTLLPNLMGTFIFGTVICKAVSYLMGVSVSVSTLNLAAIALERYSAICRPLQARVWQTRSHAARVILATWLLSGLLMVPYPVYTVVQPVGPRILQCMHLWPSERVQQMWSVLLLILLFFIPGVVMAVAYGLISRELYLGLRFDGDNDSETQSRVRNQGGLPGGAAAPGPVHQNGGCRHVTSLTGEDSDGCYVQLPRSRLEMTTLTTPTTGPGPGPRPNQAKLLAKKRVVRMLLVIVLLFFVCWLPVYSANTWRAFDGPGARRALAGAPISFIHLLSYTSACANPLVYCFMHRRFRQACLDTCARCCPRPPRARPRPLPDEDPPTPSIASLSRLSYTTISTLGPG
Protocol: The compounds of the examples were tested for binding at the CCKB receptor in mouse cortical membranes by means of a radioligand binding assay. The procedure was as follows:
The whole brains from male mice (CD1 22-25g; Charles River) were removed and placed in ice-cold buffer (pH7.2 @ 21 ± 3°C) of the following composition (mM); 10 HEPES, 130 NaCl, 4.7 KCl, 5 MgCl2, 1 EDTA and containing 0.25g.l^-1 bacitracin. The cortex was dissected, weighed and homogenised in 40ml ice-cold buffer using a Teflon-in-glass homogeniser. The homogenate was centrifuged at 39,800g for 20 min at 4°C, the supernatant discarded and the pellet resuspended by homogenisation in fresh buffer. The homogenate was recentrifuged (39,800g; 20 min @ 4°C) and the final pellet was resuspended in HEPES buffer to give a tissue concentration of 2mg.ml^-1(original wet weight).
The assay was terminated by rapid filtration through pre-soaked Whatman GF/B filters using a Brandell Cell harvester. The filters were washed (3 x 3ml) with ice-cold 50mM Tris-HCl (pH7.4 @ 4°C) and bound radioactivity determined by counting (1 min.) in a gamma-counter.

| Ki (CCKA) | Kb (gastrin) | Ki (CCKB receptor) | SMILES |
| --- | --- | --- | --- |
| 2510 nM | 126 nM | 10 nM | O=C(O)c1cc(NC(=O)[C@@H](Cc2ccccc2)NC(=O)C2C3c4ccccc4C(c4ccccc43)C2C(=O)NCC23CC4CC(CC(C4)C2)C3)cc(C(=O)O)c1 (single isomer, unassigned) [Example 3, cis-7-(1R-(3,5-dicarboxyphenylaminocarbonyl) -2-phenylethylaminocarbonyl)-8-(1-adamantanemethylaminocarbonyl) -2,3,5,6-dibenzobicyclo[2.2.2]octane] |
| 1260 nM | 15.8 nM | 15.8 nM | O=C(O)c1cc(NC(=O)[C@@H](Cc2ccccc2)NC(=O)C2C3c4ccccc4C(c4ccccc43)C2C(=O)NCC23CC4CC(CC(C4)C2)C3)cc(C(=O)O)c1 (single isomer, unassigned) [Example 4, cis-7-(1R-(3,5-dicarboxyphenylaminocarbonyl)-2-phenylethylaminocarbonyl)-8-(1-adamantananethylaminocarbonyl) -2,3,5,6-dibenzobicyclo[2.2.2]octane] |
| 501 nM | 251 nM | 50.1 nM | O=C(O)c1cc(NC(=O)[C@H](Cc2cccs2)NC(=O)C2C3c4ccccc4C(c4ccccc43)C2C(=O)NCC23CC4CC(CC(C4)C2)C3)cc(C(=O)O)c1 (single isomer, unassigned) [Example 7, cis-7-(1S-(3,5-dicarboxyphenylaminocarbonyl) -2-(2-thiophenyl)ethylaminocarbonyl)-8-(1-adamantanemethylaminocarbonyl) -2,3,5,6-dibenzobicyclo[2.2.2]octane] |
| 1000 nM | 7.94 nM | 12.6 nM | O=C(O)c1cc(NC(=O)[C@H](Cc2ccc(F)cc2)NC(=O)C2C3c4ccccc4C(c4ccccc43)C2C(=O)NCC23CC4CC(CC(C4)C2)C3)cc(C(=O)O)c1 (single isomer, unassigned) [Example 8, cis-7-(1S-(3,5-dicarboxyphenylaminocarbonyl) -2-(4-fluorophenyl)-ethylaminocarbonyl)-8-(1-adamantane-methylaminocarbonyl)-2,3,5,6-dibenzobicyclo[2.2.2]octane] |
| 398 nM | 20 nM | 50.1 nM | O=C(O)c1cc(NC(=O)[C@H](Cc2ccc(F)cc2)NC(=O)C2C3c4ccccc4C(c4ccccc43)C2C(=O)NCC23CC4CC(CC(C4)C2)C3)cc(C(=O)O)c1 (single isomer, unassigned) [Example 9, cis-7-(1S-(3,5-dicarboxyphenylaminocarbonyl) -2-(4-fluorophenyl)ethylaminocarbonyl)-8-(1-adamantanemethylaminocarbonyl) -2,3,5,6-dibenzobicyclo[2.2.2]octane] |
| 794 nM | 5.01 nM | 10 nM | O=C(O)c1cc(NC(=O)[C@H](Cc2ccc(Cl)cc2)NC(=O)C2C3c4ccccc4C(c4ccccc43)C2C(=O)NCC23CC4CC(CC(C4)C2)C3)cc(C(=O)O)c1 (single isomer, unassigned) [Example 10, cis-7-(1S-(3,5-dicarboxyphenylaminocarbonyl)-2-(4-chlorophenyl)-ethylaminocarbonyl)-8-(1-adamantanemethylaminocarbonyl) -2,3,5,6-dibenzobicyclo[2.2.2]octane] |
| 50.1 nM | 100 nM | 251 nM | O=C(O)c1cc(NC(=O)[C@H](Cc2ccc(Cl)cc2)NC(=O)C2C3c4ccccc4C(c4ccccc43)C2C(=O)NCC23CC4CC(CC(C4)C2)C3)cc(C(=O)O)c1 (single isomer, unassigned) [Example 11, cis-7-(1S-(3,5-dicarboxyphenylaminocarbonyl)-2-(4-chlorophenyl)ethylaminocarbonyl)-8-(1-adamantanemethylaminocarbonyl) -2,3,5,6-dibenzobicyclo[2.2.2]octane] |
| 1580 nM | 63.1 nM | 100 nM | COc1ccc(C[C@H](NC(=O)C2C3c4ccccc4C(c4ccccc43)C2C(=O)NCC23CC4CC(CC(C4)C2)C3)C(=O)Nc2cc(C(=O)O)cc(C(=O)O)c2)cc1 (single isomer, unassigned) [Example 12, cis-7-(1S-(3,5-dicarboxyphenylaminocarbonyl)-2-(4-methoxyphenyl) -ethylaminocarbonyl)-8-(1-adamantanemethylaminocarbonyl) -2,3,5,6-dibenzobicyclo[2.2.2]octane] |
| 2000 nM | 316 nM | 501 nM | COc1ccc(C[C@H](NC(=O)C2C3c4ccccc4C(c4ccccc43)C2C(=O)NCC23CC4CC(CC(C4)C2)C3)C(=O)Nc2cc(C(=O)O)cc(C(=O)O)c2)cc1 (single isomer, unassigned) [Example 13, cis-7-(1S-(3,5-dicarboxyphenylaminocarbonyl) -2-(4-methoxyphenyl)ethylaminocarbonyl)-8-(1-adamantanemethylaminocarbonyl) -2,3,5,6-dibenzobicyclo[2.2.2]octane] |
